In test [1] the target is T1, AHR (Mus musculus, UniProt P30561).
T1 sequence (P30561 1-848 P471L/N533S/M589L): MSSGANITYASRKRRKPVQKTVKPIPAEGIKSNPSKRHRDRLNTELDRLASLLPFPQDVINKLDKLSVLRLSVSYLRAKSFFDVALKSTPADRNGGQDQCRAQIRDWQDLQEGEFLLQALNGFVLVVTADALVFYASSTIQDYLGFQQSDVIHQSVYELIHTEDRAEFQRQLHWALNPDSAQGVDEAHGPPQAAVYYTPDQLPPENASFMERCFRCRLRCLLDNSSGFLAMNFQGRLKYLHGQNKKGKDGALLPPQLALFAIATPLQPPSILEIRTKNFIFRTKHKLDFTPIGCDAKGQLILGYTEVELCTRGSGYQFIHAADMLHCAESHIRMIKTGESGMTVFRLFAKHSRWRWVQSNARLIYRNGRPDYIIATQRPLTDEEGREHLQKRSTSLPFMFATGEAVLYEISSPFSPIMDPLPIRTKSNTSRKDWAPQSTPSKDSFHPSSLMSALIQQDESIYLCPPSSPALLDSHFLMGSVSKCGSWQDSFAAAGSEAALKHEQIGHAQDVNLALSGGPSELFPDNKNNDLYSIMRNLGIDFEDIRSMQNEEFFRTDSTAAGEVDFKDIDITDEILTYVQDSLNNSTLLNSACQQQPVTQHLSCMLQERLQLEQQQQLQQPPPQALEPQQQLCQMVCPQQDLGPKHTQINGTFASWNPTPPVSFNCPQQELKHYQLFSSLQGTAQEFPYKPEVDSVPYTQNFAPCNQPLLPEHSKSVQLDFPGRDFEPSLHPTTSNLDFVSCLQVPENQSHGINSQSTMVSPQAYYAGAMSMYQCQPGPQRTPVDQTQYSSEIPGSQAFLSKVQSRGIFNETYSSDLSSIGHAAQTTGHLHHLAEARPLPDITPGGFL
In words: In vitro assay 3: antagonism in mouse cell line (AHR transactivation, firefly luciferase reporter, kynurenic acid prestimulated). Format: cell-based. A digest of the protocol: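 Antagonism read as reduced firefly luciferase signal (SteadyGlo) from a stably transfected AHR/DRE reporter in a mouse line prestimulated with kynurenic acid. Data normalized to controls, the full-inhibition control being cells without kynurenic acid; multiple determinations given as average or median values.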
On the technique in general: Reporter assays use an easily measured gene product as a stand-in for the process of interest.

The target of test [2] is T2, AHR (Homo sapiens, UniProt P35869).
T2 construct: U87 MG glioblastoma cells (ATCC #HTB-14) endogenously expressing AHR; endogenous in cells; host or cells: U87 MG glioblastoma cells (ATCC #HTB-14)
T2 sequence (P35869 11-848): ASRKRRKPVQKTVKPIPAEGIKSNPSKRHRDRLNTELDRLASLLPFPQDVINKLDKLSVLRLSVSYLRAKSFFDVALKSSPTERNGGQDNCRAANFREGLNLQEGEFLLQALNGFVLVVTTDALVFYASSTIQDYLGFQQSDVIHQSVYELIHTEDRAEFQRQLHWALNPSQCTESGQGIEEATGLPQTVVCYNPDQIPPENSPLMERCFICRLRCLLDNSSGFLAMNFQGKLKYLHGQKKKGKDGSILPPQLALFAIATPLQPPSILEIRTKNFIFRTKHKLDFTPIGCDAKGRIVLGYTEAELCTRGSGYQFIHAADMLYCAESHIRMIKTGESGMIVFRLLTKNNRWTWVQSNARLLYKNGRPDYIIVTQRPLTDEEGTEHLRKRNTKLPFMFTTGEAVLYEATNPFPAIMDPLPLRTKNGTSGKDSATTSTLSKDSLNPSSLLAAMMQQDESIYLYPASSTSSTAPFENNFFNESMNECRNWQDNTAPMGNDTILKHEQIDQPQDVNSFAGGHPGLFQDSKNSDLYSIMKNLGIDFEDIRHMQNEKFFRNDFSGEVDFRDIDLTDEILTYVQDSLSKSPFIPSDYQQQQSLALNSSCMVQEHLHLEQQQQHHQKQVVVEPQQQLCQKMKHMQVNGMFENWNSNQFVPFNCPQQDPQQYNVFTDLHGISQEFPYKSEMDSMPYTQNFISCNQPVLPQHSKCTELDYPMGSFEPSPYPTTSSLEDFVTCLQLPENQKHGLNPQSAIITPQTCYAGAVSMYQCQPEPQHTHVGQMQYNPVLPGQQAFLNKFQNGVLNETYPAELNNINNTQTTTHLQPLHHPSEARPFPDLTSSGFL
Put plainly: In vitro assay 1: antagonism in human cell line (AHR transactivation, firefly luciferase reporter, kynurenic acid prestimulated). Format: cell-based. The note with it: AHR Antagonism Human IC50 [M]. The gist of the method:
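Antagonism measured as loss of kynurenic acid-driven firefly luciferase from DRE reporter in stably transfected U87 MG cells; constitutive Renilla signal monitors cytotoxicity. Positive/negative control normalization, staurosporine 5 μM with 150 μM kynurenic acid as inhibition control; replicates given as mean or median.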

[3] abbreviates: mouse Hepa 1c1c7 cells, 200 μM kynurenic acid, 20 hours, read-out: AHR Antagonism Mouse IC50.
Setting [4] is: Hepa 1c1c7 cells, 200 μM kynurenic acid, 20 hours, firefly luciferase reporter, read-out: AHR Antagonism Mouse IC50.

Like-named read-outs stand apart in the source and are kept apart here.

Broadly, the IC50 is the concentration at which inhibition is half-maximal.

Take `COc1cccc(-c2nc3c4c(C)cccc4nc(NC4CCCNC4=O)n3n2)c1` (stereo not shown) [Example 180, 3-{[2-(3-methoxyphenyl)-10-methyl[1,2,4]triazolo[1,5-c]quinazolin-5-yl]amino}piperidin-2-one]: the values for the IC50 at AHR [1] (setting [3]) and on AHR [2] were 253 nM and 1.27e-07 M, respectively.

For `CSc1cccc2c1nc(N[C@@H]1CCCCNC1=O)n1nc(-c3cnn(C(C)C)c3)nc21` [Example 771, (3R)-3-({7-(methylsulfanyl)-2-[1-(propan-2-yl)-1H-pyrazol-4-yl][1,2,4]triazolo[1,5-c]quinazolin-5-yl}amino)azepan-2-one], the figures for the IC50 on AHR [1] (setting [3]) and on AHR [2] were 104 nM and 1.02e-08 M, respectively.

Take `Cc1sccc1-c1nc2c3ccccc3nc(N[C@H]3CCCCNC3=O)n2n1` [Example 347]: the IC50 is 4.28 nM at AHR [1] (setting [3]) and 1.17e-07 M on AHR [2].

For `CNCCNC(=O)[C@@H](C)Nc1nc2c(Br)cccc2c2nc(-c3cnn(C)c3)nn12` [Example 991, N^2-[7-bromo-2-(1-methyl-1H-pyrazol-4-yl)[1,2,4]triazolo[1,5-c]quinazolin-5-yl]-N-[2-(methylamino)ethyl]-D-alaninamide-hydrogen chloride (1/1)], the IC50 at AHR [1] (setting [4]) came to 76.6 nM; at AHR [2] (firefly luciferase reporter) it was 3.13e-08 M.

For the compound `CCCNC(=O)[C@H](CC)Nc1nc2c(Br)cccc2c2nc(-c3ccc(Cl)cc3OC(F)(F)F)nn12` [Example 685, (2S)-2-({7-bromo-2-[4-chloro-2-(trifluoromethoxy)phenyl][1,2,4]triazolo[1,5-c]quinazolin-5-yl}amino)-N-propylbutanamide], the 50% inhibitory concentration (IC50) at AHR [1] (setting [3]) was 142 nM; at AHR [2], over 2e-06 M.

`C[C@@H](Nc1nc2c(Br)cccc2c2nc(-c3cnn(C)c3)nn12)C(=O)N1C[C@H]2C[C@@H]1CN2C` [Example 902]: the IC50 on AHR [1] (setting [4]) was found to be 95 nM; against AHR [2] (firefly luciferase reporter), 8e-08 M.

In the case of `Cn1nccc1-c1nc2c3cccc(C(F)(F)F)c3nc(N[C@H]3CCCCNC3=O)n2n1` [Example 807, (3S)-3-{[2-(1-methyl-1H-pyrazol-5-yl)-7-(trifluoromethyl)[1,2,4]triazolo[1,5-c]quinazolin-5-yl]amino}azepan-2-one], the IC50 worked out at 63.8 nM at AHR [1] (setting [4]) and 1.1e-07 M at AHR [2] (firefly luciferase reporter).

With `C[C@@H](Nc1nc2c(Br)cccc2c2nc(-c3cnn(C)c3)nn12)C(=O)N1CCNCC1` [Example 985, (2R)-2-{[7-bromo-2-(1-methyl-1H-pyrazol-4-yl)[1,2,4]triazolo[1,5-c]quinazolin-5-yl]amino}-1-(piperazin-1-yl)propan-1-one hydrogen chloride (1/1)], the IC50 on AHR [1] (setting [4]) came to 95 nM; at AHR [2] (firefly luciferase reporter), 6.49e-08 M.

For `COc1ccc(-c2nc3c4ccccc4nc(N[C@H](C)C(=O)NCCN4CCCCC4)n3n2)cc1` [Example 897, N^2-[2-(4-methoxyphenyl)[1,2,4]triazolo[1,5-c]quinazolin-5-yl]-N-[2-(piperidin-1-yl)ethyl]-D-alaninamide], the IC50 was found to be 28.5 nM on AHR [1] (setting [4]) and 4.02e-08 M against AHR [2] (firefly luciferase reporter).

As for `CC[C@@H](Nc1nc2ccccc2c2nc(-c3ccccc3OC(F)F)nn12)C(N)=O` [Example 476, (2R)-2-({2-[2-(difluoromethoxy)phenyl][1,2,4]triazolo[1,5-c]quinazolin-5-yl}amino)butanamide], the concentration for half-maximal inhibition (IC50) at AHR [1] (read-out: AHR Antagonism Mouse IC50, mouse Hepa 1c1c7 cells, 200 μM kynurenic acid, 20 hours) amounted to 0.554 nM; against AHR [2], 3.93e-09 M.

As for `CC(C)n1cc(-c2nc3c4cccc(C(F)(F)F)c4nc(N[C@@H]4CSCCNC4=O)n3n2)cn1` [Example 838, (6S)-6-({2-[1-(propan-2-yl)-1H-pyrazol-4-yl]-7-(trifluoromethyl)[1,2,4]triaozlo[1,5-c]quinazolin-5-yl}amino)-1,4-thiazepan-5-one], the IC50 at AHR [1] (setting [4]) worked out at 2.02 nM; against AHR [2] (firefly luciferase reporter), 9.63e-10 M.

On to `C[C@@H](Nc1nc2c(Br)cccc2c2nc(-c3cnn(C)c3)nn12)C(=O)N1CCN(C(=O)OC(C)(C)C)CC1` [Example 886, tert-butyl 4-{N-[7-bromo-2-(1-methyl-1H-pyrazol-4-yl)[1,2,4]triazolo[1,5-c]quinazolin-5-yl]-D-alanyl}piperazine-1-carboxylate], for which the values for the IC50 at AHR [1] (setting [4]) and at AHR [2] (firefly luciferase reporter) were 99.3 nM and 6.83e-08 M, respectively.

Turning to `COc1ccc(-c2nc3c4cc(F)ccc4nc(N[C@@H]4CCCCNC4=O)n3n2)cc1` [Example 231, (3R)-3-{[9-fluoro-2-(4-methoxyphenyl)[1,2,4]triazolo[1,5-c]quinazolin-5-yl]amino}azepan-2-one], the IC50 was 0.406 nM at AHR [1] (setting [3]) and 8.14e-10 M at AHR [2].

With `COc1ccc(-c2nc3c4ccccc4nc(N[C@@H]4CNCCNC4=O)n3n2)c(C)c1` [Example 410, (6R)-6-{[2-(4-methoxy-2-methylphenyl)[1,2,4]triazolo[1,5-c]quinazolin-5-yl]amino}-1,4-diazepan-5-one], the figures for the IC50 at AHR [1] (setting [3]) and against AHR [2] were 4.73 nM and 1.53e-08 M, respectively.

Turning to `COC(=O)N1CCN(C(=O)[C@@H](C)Nc2nc3c(Br)cccc3c3nc(-c4cnn(C)c4)nn23)CC1` [Example 893, methyl 4-{N-[7-bromo-2-(1-methyl-1H-pyrazol-4-yl)[1,2,4]triazolo[1,5-c]quinazolin-5-yl]-D-alanyl}piperazine-1-carboxylate], the half-maximal inhibitory concentration (IC50) on AHR [1] (setting [4]) was 18.2 nM; against AHR [2] (firefly luciferase reporter), 2.65e-08 M.

For `Cn1cc(-c2nc3c4cccc(F)c4nc(N[C@@H]4CNCCNC4=O)n3n2)cn1` [Example 428], the IC50 at AHR [1] (setting [3]) worked out at 561 nM; at AHR [2], 2.44e-06 M.

In the case of `O=C1NCCCC[C@H]1Nc1nc2ccccc2c2nc(-c3cnn(CCCO)c3)nn12` [Example 598, (3R)-3-({2-[1-(3-hydroxypropyl)-1H-pyrazol-4-yl][1,2,4]triazolo[1,5-c]quinazolin-5-yl}amino)azepan-2-one], the IC50 at AHR [1] (setting [3]) came to 171 nM; against AHR [2], 2.8e-07 M.

On to `Cn1cc(-c2nc3c4cccc(F)c4nc(N[C@@H]4CCCCNC4=O)n3n2)cn1` [Example 551, (3R)-3-{[7-fluoro-2-(1-methyl-1H-pyrazol-4-yl)[1,2,4]triazolo[1,5-c]quinazolin-5-yl]amino}azepan-2-one], for which the half-maximal inhibitory concentration (IC50) came to 13.8 nM at AHR [1] (setting [3]) and 1.17e-08 M against AHR [2].

Turning to `O=C1NCCNC[C@H]1Nc1nc2c(C(F)(F)F)cccc2c2nc(-c3cnn(C4CC4)c3)nn12` [Example 963, (6R)-6-{[2-(1-cyclopropyl-1H-pyrazol-4-yl)-7-(trifluoromethyl)[1,2,4]triazolo[1,5-c]quinazolin-5-yl]amino}-1,4-diazepan-5-one], the half-maximal inhibitory concentration (IC50) on AHR [1] (setting [4]) came out at 4.79 nM; at AHR [2] (firefly luciferase reporter), 1.76e-09 M.

Consider `COc1ccc(-c2nc3c4cccc(Br)c4nc(N[C@@H](C(=O)N4CCOCC4)C(C)C)n3n2)cc1` [Example 925, (2R)-2-{[7-bromo-2-(4-methoxyphenyl)[1,2,4]triazolo[1,5-c]quinazolin-5-yl]amino}-3-methyl-1-(morpholin-4-yl)butan-1-one], for which the IC50 at AHR [1] (setting [4]) turned out to be 4.14 nM; against AHR [2] (firefly luciferase reporter), 6.08e-09 M.
